IC50 and Activity data for 15 compounds are collected here from ChEMBL document CHEMBL1140102, “Novel A-ring and B-ring modified combretastatin A-4 (CA-4) analogues endowed with interesting cytotoxic activity” (J Med Chem, 2008).

Assay [1] in a line: Displacement of [3H]colchicine from tubulin by scintillation proximity assay. For orientation: In a radioligand displacement assay an active substance lowers the binding of a labelled ligand.
The next assay concerns BMEC. Description: Cytotoxicity against BMEC by sulforhodamine B test. The format is cell-based. The note with it: Bos taurus.
The test system of the next assay is NCI-H460. Briefly: Cytotoxicity against human H460 cells by sulforhodamine B test. The format is functional, cell-based.
In assay [2] the test system is HT-29. Description: Cell cycle arrest in human HT29 cells assessed as accumulation at G0/G1 phase at 0.5 uM after 24 hrs by flow cytometry assay. The format is functional.
Assay [3] relates to HT-29. Briefly: Cytotoxicity against human HT29 cells by sulforhodamine B test. The format is functional, cell-based.
Assay [4] relates to HT-29. Briefly: Cell cycle arrest in human HT29 cells assessed as accumulation at S phase at 0.5 uM after 24 hrs by flow cytometry assay. In kind it is functional.
The test system of assay [5] is HT-29. Briefly: Cell cycle arrest in human HT29 cells assessed as accumulation at G2/M phase at 0.5 uM after 24 hrs by flow cytometry assay. In kind it is functional.

The structures appear in SMILES notation.

As usually defined, the IC50 is the concentration at which inhibition is half-maximal. Low readings indicate higher potency, high ones lower potency.

Regarding `COc1ccc(/C=C/c2cc(OC)c3ccoc3c2)cc1O`, the IC50 was 6200 nM in assay [1] and > 10000 nM in the assay with BMEC.

`COc1ccc(/C=C\c2cc(OC)c3ccsc3c2)cc1N.Cl`: the IC50 in the assay on NCI-H460 stood at 19 nM; in the assay on HT-29 [3] it was 21 nM; in assay [1], 6200 nM; in the assay on BMEC, 20 nM. In addition, the Activity with HT-29 [2] stood at 28%; in the assay on HT-29 [4] it was 22%; in the assay with HT-29 [5] it was 50%.

As to `COc1ccc(/C=C\c2cc(OC)c3c(c2)OCO3)cc1O` [Combretastatin A-2], the results for the IC50 with NCI-H460, with HT-29 [3] and in the assay with BMEC were 40 nM, > 1000 nM and 48 nM, respectively.

With `COc1ccc(/C=C\c2cc(OC)c3occc3c2)cc1O`, the IC50 is 12 nM in the assay on NCI-H460, 590 nM with HT-29 [3], 50 nM in assay [1] and 35 nM in the assay with BMEC.

For `COc1cc(/C=C\c2cc(O)c3ccoc3c2)cc(OC)c1`, the concentration for half-maximal inhibition (IC50) in assay [1] was found to be 4000 nM; in the assay with BMEC, 800 nM.

`COc1ccc(/C=C\c2cc(OC)c3ccoc3c2)cc1O`: the IC50 is 19 nM in the assay on NCI-H460, 420 nM with HT-29 [3], 20 nM in assay [1] and 35 nM in the assay on BMEC.

Take `COc1ccc(/C=C\c2ccc3c(c2)C(C)(C)CCC3(C)C)cc1O`: the IC50 with BMEC is > 10000 nM.

As for `COc1cc(/C=C\c2cc(O)c3ccoc3c2)cc2c1OCO2`, the IC50 in assay [1] is 7700 nM; in the assay with BMEC, > 3000 nM.

Take `COc1cc(/C=C\c2cc(O)c3ccsc3c2)cc(OC)c1`: the IC50 in assay [1] amounted to 3800 nM; in the assay on BMEC, 110 nM.

As to `COc1ccc(/C=C\c2cc(OC)c3ccsc3c2)cc1`, the IC50 in the assay with NCI-H460 was 110 nM; with BMEC it was 123 nM.

In turn, `COc1cc2c(c(OC)c1OC)-c1ccc(OC)c(=O)cc1[C@@H](NC(C)=O)CC2` [COLCHICINE] had an IC50 in assay [1] of 1700 nM.

Take `COc1ccc(/C=C\c2cc(OC)c(OC)c(OC)c2)cc1O` [COMBRETASTATIN A4]: the IC50 with NCI-H460 came out at 1.2 nM; in the assay on HT-29 [3], 118 nM; in assay [1] it was 100 nM; with BMEC, 3.7 nM.

Regarding `COc1ccc(/C=C\c2cc(OC)c3ccsc3c2)cc1O`, the IC50 with NCI-H460 amounted to 13 nM; with HT-29 [3], 260 nM; in assay [1], 20 nM; in the assay on BMEC it was 17 nM.

`COc1cc(/C=C\c2cc(O)c3ccsc3c2)cc2sccc12`: the IC50 turned out to be 312 nM in the assay with NCI-H460 and 250 nM in the assay on BMEC.

As to `COc1cc(/C=C\c2cc(O)c3ccsc3c2)cc2c1OCO2`, the IC50 is 4900 nM in assay [1] and 880 nM in the assay on BMEC.
